This is an account of results in BindingDB's records for doi:10.1021/acs.jmedchem.9b01709 (The Institute of Cancer Research, 2019).

This experiment has as its target Heat shock 70 kDa protein 1A (HSP72/HSPA1A) (Homo sapiens) (UniProt P0DMV8). Nature of the experiment: Covalent inhibition of HSP72-NBD (unknown origin) nucleotide-derived FP probe displacement based by fluorescence polarization assay. On the technique in general: Fluorescence polarisation rises when a labelled molecule tumbles more slowly, as on binding a larger partner.

Heat shock 70 kDa protein 1A (HSP72/HSPA1A) (Homo sapiens), sequence (P0DMV8 whole entry, looked up): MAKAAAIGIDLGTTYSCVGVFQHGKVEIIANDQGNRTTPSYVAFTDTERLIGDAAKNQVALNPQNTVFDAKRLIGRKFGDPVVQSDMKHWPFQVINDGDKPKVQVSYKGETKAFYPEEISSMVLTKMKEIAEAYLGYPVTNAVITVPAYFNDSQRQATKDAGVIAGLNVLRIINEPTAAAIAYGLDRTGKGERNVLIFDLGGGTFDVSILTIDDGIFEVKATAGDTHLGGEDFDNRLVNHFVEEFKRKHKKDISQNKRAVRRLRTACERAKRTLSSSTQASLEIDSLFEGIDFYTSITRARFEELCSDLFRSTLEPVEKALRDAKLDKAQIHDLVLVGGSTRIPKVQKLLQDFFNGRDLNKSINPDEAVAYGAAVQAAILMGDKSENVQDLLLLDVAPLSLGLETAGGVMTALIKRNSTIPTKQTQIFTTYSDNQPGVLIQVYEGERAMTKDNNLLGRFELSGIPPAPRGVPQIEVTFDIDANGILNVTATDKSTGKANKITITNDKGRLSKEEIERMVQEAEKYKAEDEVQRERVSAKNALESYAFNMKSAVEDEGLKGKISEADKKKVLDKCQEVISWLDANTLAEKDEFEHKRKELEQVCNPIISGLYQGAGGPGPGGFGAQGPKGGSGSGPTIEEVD

As to `N#Cc1ccc(COC[C@H]2O[C@@H](n3c(NCc4ccc(Cl)c(Cl)c4)nc4c(N)ncnc43)[C@H](O)[C@@H]2O)cc1` [adenosine-derived inhibitor (Grp78), 13], the Ki was less than 200 nM.
